# Measurements from patent US10852272B2, “Devices and methods using pore size modulation for detecting analytes in a fluid sample” (The Regents of the University of California, priority 2014, dated 2020).
# Key:
# [1] = Dissolution (decrosslinking) kinetics of labile crosslinkers under the dissolution treatment (applied stimulus); type: physicochemical; settings: under the dissolution treatment listed per crosslinker (periodic acid, reducing agent, base or acid)
# From the text: Certain properties of labile crosslinkers are described in the table below.
# [2] = Half-life of DK as a function of pH; type: physicochemical; settings: buffer
# Protocol: The half-life of DK was 0.03 days at pH 5 and 6 days at pH 7.4 (at 35° C.). To qualitatively confirm decrosslinking functionality, four solutions of tris glycine were titrated to pH values of 8.3, 7.1, 2.6 and 0.07, with the addition of hydrochloric acid. A piece of DK crosslinked PAG was placed into each of the separate solutions to assess dissolution at room temperature. Gels were periodically removed and photographs were taken to qualitatively assess how much gel remained. […] The gels soaking in 8.3 pH and 7.1 pH were not visually affected even after overnight incubation. […] Experiments were performed to study composite crosslinked PAG.
Compound,Dissolution Kinetics [1],"half-life ([2]; pH 5, 35° C.) [h]","half-life ([2]; pH 7.4, 35° C.) [h]"
"C=CC(=O)NCCSSCCNC(=O)C=C [BAC, N,N′-bis(acryloyl)cystamine]",Minutes,,
"C=CCNC(=O)C(O)C(O)C(=O)NCC=C (centres unmarked) [DATD, N—N′-diallyltartardiamide]",Hours,,
"C=CC(=O)NCCOCCOC(C)(C)OCCOCCNC(=O)C=C [DOK, N,N′-(7,7-dimethyl-3,6,8,11-tetraoxatridecane-1,13-diyl)diacrylamide]",Minutes,,

# Further lines, results first:
Dissolution Kinetics [1],"half-life ([2]; pH 5, 35° C.) [h]","half-life ([2]; pH 7.4, 35° C.) [h]",Compound
Hours,,,"C=CC(=O)NC(O)C(O)NC(=O)C=C (centres unmarked) [DHEBA, N,N′-(1,2-dihydroxyethylene)bisacrylamide]"
Minutes,0.72,144,"C=CC(=O)NCCOC(C)(C)OCCNC(=O)C=C [DK, N-[2-[2-[2-(prop-2-enoylamino)ethoxy]propan-2-yloxy]ethyl]prop-2-enamide]"
Minutes,,,"C=CC(=O)OCCOC(=O)C=C [EDA, ethylene glycol diacrylate]"
